Reference: ChEMBL document CHEMBL3763148, “Synthesis, structure elucidation, DNA-PK and PI3K and anti-cancer activity of 8- and 6-aryl-substituted-1-3-benzoxazines” (Eur J Med Chem, 2016)

How the values were obtained:
[1] = target: T1, DNA-dependent protein kinase catalytic subunit (Homo sapiens, UniProt P78527); assay: Inhibition of human DNA-PK using EPPLSQEAFADLWKK as substrate by HTRF assay
[2] = target: T2, Phosphatidylinositol 4,5-bisphosphate 3-kinase catalytic subunit alpha isoform (Homo sapiens, UniProt P42336); assay: Inhibition of PI3Kalpha (unknown origin) at 10 uM incubated for 60 mins by kinase-glo luminescence assay
[3] = target: Phosphatidylinositol 4,5-bisphosphate 3-kinase catalytic subunit gamma isoform (Homo sapiens) (UniProt P48736); assay: Inhibition of PI3Kgamma (unknown origin) at 10 uM incubated for 60 mins by kinase-glo luminescence assay
[4] = target: T3, Phosphatidylinositol 4,5-bisphosphate 3-kinase catalytic subunit beta isoform (Homo sapiens, UniProt P42338); assay: Inhibition of PI3Kbeta (unknown origin) at 10 uM incubated for 60 mins by kinase-glo luminescence assay
Target sequence in this assay (P42338 whole entry, looked up, canonical isoform): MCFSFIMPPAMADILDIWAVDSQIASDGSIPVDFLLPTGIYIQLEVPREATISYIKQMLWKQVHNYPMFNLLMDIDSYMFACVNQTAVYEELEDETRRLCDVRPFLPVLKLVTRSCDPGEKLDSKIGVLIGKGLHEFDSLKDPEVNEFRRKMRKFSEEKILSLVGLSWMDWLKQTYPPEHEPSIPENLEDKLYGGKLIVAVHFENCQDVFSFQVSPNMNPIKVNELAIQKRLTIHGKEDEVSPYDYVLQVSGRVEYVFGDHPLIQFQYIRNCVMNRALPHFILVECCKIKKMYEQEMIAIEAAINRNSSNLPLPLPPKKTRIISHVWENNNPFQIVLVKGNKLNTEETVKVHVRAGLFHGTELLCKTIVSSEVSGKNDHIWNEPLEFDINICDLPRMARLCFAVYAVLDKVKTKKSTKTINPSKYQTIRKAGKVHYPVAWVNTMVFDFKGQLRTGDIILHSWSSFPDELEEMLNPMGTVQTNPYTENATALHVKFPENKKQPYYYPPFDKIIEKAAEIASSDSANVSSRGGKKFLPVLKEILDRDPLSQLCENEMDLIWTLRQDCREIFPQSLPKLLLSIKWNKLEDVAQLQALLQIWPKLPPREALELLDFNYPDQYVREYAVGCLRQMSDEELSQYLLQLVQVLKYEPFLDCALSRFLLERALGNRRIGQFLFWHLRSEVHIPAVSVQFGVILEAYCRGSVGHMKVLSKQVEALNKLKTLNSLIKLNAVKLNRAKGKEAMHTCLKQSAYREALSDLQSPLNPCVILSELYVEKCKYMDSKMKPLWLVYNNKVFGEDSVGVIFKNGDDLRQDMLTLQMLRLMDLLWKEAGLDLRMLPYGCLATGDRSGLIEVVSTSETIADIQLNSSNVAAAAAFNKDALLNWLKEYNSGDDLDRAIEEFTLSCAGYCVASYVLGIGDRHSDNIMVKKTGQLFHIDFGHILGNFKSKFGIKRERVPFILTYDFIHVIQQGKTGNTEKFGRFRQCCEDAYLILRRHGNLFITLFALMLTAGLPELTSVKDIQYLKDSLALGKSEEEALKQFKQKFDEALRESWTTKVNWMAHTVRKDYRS

[5] = target: T4, Phosphatidylinositol 4,5-bisphosphate 3-kinase catalytic subunit delta isoform (Homo sapiens) (UniProt O00329); assay: Inhibition of PI3Kdelta (unknown origin) at 10 uM incubated for 60 mins by kinase-glo luminescence assay
T4 sequence (whole entry): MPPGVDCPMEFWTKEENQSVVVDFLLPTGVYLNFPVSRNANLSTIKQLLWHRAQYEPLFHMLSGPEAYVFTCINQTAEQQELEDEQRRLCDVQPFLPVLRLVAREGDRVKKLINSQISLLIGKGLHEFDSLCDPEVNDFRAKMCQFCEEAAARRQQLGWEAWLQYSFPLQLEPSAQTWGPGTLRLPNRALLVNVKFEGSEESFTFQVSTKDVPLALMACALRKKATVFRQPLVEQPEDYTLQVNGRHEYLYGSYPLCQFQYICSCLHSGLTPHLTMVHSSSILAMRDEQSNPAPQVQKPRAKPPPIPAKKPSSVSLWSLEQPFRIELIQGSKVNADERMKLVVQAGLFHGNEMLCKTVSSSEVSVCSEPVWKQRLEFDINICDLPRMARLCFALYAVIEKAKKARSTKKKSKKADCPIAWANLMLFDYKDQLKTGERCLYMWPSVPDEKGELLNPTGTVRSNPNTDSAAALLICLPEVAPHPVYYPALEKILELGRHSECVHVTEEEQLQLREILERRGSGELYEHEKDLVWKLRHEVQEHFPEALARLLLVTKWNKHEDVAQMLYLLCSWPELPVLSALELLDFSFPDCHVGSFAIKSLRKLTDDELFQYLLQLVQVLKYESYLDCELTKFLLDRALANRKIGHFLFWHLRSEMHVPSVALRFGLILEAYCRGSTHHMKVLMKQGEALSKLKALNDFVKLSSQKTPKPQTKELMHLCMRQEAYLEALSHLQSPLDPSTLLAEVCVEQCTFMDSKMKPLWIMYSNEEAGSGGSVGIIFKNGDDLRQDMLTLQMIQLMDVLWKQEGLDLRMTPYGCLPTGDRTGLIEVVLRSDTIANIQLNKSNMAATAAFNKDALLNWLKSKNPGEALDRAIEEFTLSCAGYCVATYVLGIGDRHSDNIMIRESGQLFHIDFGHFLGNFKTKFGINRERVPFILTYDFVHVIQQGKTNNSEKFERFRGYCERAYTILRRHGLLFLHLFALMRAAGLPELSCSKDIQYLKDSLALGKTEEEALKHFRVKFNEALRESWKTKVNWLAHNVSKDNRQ

[6] = target: T5, Phosphatidylinositol 4,5-bisphosphate 3-kinase catalytic subunit delta isoform (Homo sapiens, UniProt O00329); assay: Inhibition of PI3Kdelta (unknown origin) incubated for 60 mins by kinase-glo luminescence assay
T5 sequence (O00329 whole entry): T4 sequence (whole entry)

[7] = target: T3, Phosphatidylinositol 4,5-bisphosphate 3-kinase catalytic subunit beta isoform; assay: Inhibition of PI3Kbeta (unknown origin) incubated for 60 mins by kinase-glo luminescence assay
Target sequence in this assay (P42338 whole entry, canonical isoform): as the sequence (P42338 whole entry, looked up, canonical isoform) above

[8] = target: T1, DNA-dependent protein kinase catalytic subunit; assay: Inhibition of human DNA-PK using EPPLSQEAFADLWKK as substrate at 10 uM by HTRF assay
[9] = target: T2, Phosphatidylinositol 4,5-bisphosphate 3-kinase catalytic subunit alpha isoform; assay: Inhibition of PI3Kalpha (unknown origin) incubated for 60 mins by kinase-glo luminescence assay

Chain of Phosphatidylinositol 4,5-bisphosphate 3-kinase catalytic subunit gamma isoform (Homo sapiens) (P48736 whole entry, looked up, canonical isoform): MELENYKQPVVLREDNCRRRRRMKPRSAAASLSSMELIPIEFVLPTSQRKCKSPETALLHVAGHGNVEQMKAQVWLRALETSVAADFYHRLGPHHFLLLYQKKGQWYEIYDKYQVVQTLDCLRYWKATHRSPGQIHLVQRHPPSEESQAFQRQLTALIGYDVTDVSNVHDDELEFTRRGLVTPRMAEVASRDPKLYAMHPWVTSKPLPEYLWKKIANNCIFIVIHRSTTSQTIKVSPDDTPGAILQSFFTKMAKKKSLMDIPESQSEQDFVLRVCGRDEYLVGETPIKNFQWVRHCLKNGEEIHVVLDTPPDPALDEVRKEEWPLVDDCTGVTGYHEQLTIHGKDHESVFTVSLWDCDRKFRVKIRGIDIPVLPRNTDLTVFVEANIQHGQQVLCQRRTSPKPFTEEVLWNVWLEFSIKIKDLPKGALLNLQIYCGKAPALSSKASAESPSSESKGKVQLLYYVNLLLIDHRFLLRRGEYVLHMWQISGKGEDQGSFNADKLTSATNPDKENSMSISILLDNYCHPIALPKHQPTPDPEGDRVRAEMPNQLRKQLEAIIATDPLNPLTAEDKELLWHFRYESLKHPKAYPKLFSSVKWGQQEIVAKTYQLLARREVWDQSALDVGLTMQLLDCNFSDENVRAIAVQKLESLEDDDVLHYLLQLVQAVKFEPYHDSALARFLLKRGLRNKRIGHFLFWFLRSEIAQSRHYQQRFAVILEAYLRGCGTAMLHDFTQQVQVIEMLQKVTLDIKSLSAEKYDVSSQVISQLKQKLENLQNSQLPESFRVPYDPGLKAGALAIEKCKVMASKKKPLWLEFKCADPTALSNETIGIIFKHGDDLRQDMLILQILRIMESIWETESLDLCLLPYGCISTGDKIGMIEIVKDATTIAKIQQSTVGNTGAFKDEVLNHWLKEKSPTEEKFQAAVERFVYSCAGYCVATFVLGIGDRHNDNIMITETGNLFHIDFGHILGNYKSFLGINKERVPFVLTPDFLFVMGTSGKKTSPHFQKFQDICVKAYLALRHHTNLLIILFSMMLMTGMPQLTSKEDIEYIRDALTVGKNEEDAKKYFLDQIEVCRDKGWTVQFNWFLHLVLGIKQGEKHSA
T2 sequence (P42336 whole entry, canonical isoform): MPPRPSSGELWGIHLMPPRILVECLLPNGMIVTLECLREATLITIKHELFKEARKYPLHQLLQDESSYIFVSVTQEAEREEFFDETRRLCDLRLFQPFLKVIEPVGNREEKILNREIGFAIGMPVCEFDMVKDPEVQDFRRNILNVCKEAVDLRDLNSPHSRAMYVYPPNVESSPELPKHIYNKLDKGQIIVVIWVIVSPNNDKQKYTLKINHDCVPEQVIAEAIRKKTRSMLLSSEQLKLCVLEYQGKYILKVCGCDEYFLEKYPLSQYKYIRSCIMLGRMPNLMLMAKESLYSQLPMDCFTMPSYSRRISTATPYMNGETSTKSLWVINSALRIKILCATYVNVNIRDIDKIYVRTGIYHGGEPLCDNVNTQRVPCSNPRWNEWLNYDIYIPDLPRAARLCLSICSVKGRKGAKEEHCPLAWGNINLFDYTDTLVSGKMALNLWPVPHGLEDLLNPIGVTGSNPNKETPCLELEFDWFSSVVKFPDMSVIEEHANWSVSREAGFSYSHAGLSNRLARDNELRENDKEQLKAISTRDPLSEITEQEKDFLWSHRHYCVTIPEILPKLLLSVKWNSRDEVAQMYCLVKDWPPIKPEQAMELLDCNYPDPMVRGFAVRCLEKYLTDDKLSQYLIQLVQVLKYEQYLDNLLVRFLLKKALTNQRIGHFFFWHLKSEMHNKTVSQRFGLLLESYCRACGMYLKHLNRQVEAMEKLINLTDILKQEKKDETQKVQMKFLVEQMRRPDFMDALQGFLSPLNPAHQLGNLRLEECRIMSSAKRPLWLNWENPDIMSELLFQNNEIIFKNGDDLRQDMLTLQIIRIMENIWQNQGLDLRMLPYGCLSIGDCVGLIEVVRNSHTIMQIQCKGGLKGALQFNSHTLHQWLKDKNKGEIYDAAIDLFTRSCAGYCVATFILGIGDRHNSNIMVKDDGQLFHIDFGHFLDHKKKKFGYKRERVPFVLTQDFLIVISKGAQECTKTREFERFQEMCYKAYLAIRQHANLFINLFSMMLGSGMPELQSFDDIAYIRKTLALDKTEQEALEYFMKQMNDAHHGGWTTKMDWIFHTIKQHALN

| SMILES | IC50 [1] | inhibition [2] | inhibition [3] | inhibition [4] | inhibition [5] | IC50 [6] | IC50 [7] | inhibition [8] | IC50 [9] |
| --- | --- | --- | --- | --- | --- | --- | --- | --- | --- |
| O=c1nc(N2CCOCC2)oc2c(-c3cccc4c3sc3ccccc34)cc(Cl)cc12 | 0.564 µM | 0% | 1% | 59% | 36% |  |  |  |  |
| O=c1nc(N2CCOCC2)oc2ccc(-c3cc4ccccc4s3)cc12 |  | 3% | 3% | 20% | 0% |  |  | 0% |  |
| O=c1nc(N2CCOCC2)oc2ccc(-c3ccccc3)cc12 |  | 2% | 9% | 0% | 0% |  |  | 1% |  |
| O=c1nc(N2CCOCC2)oc2ccc(-c3ccc(Cl)cc3)cc12 |  | 10% | 10% | 0% | 0% |  |  | 7% |  |
| O=c1nc(N2CCOCC2)oc2ccc(-c3cccc4ccccc34)cc12 |  | 10% | 4% | 0% | 0% |  |  | 4% |  |
| O=c1nc(N2CCOCC2)oc2ccc(-c3ccc(CO)cc3)cc12 |  | 7% | 0% | 0% | 0% |  |  | 11% |  |
| O=c1nc(N2CCOCC2)oc2c(-c3cc4ccccc4s3)cc(Cl)cc12 | 5.77 µM | 35% | 14% | 15% | 16% |  |  |  |  |
| O=c1nc(N2CCOCC2)oc2c(-c3cccs3)cc(Cl)cc12 | 6.05 µM | 42% | 0% | 0% |  | 10 µM |  |  |  |
| O=c1nc(N2CCOCC2)oc2c(-c3ccc(CO)cc3)cccc12 | 15.7 µM |  | 31% |  |  | 9 µM | 3.2 µM |  | 10 µM |
| O=c1nc(N2CCOCC2)oc2ccc(-c3cccnc3)cc12 |  | 11% | 0% | 36% | 3% |  |  | 6% |  |
| O=c1nc(N2CCOCC2)oc2ccc(-c3cccs3)cc12 |  |  |  |  |  |  |  | 24% |  |

The remaining lines, values ahead:

| IC50 [1] | inhibition [2] | inhibition [3] | inhibition [4] | inhibition [5] | IC50 [6] | IC50 [7] | inhibition [8] | IC50 [9] | SMILES |
| --- | --- | --- | --- | --- | --- | --- | --- | --- | --- |
| 0.3 µM |  |  |  |  | 0.95 µM |  |  |  | O=c1cc(N2CCOCC2)oc2c(-c3ccccc3)cccc12 [LY-294002] |
| 63.5 µM | 13% | 0% |  | 4% |  | 10 µM |  |  | Nc1cccc(-c2cccc3c(=O)nc(N4CCOCC4)oc23)c1 |
|  | 3% | 4% | 29% | 0% |  |  | 23% |  | O=c1nc(N2CCOCC2)oc2ccc(/C=C/c3ccccc3)cc12 |
| 78.4 µM | 26% | 24% |  | 37% |  | > 10 µM |  |  | O=c1nc(N2CCOCC2)oc2c(-c3cccnc3)cccc12 |
| 2.12 µM |  | 17% | 15% |  | 3.7 µM |  |  | 10 µM | O=c1nc(N2CCOCC2)oc2c(-c3cc4ccccc4s3)cccc12 |
|  | 7% | 0% | 17% | 0% |  |  | 8% |  | COc1ccc(-c2ccc3oc(N4CCOCC4)nc(=O)c3c2)cc1 |
| 10.9 µM |  | 16% | 34% |  | 10 µM |  |  | > 10 µM | O=c1nc(N2CCOCC2)oc2c(-c3ccc(Cl)cc3)cccc12 |
|  |  |  |  |  |  |  | 21% |  | O=c1nc(N2CCOCC2)oc2ccc(-c3ccsc3)cc12 |
|  |  |  |  |  |  |  | 7% |  | Nc1cccc(-c2ccc3oc(N4CCOCC4)nc(=O)c3c2)c1 |
|  | 11% | 0% | 13% | 0% |  |  | 7% |  | O=c1nc(N2CCOCC2)oc2ccc(-c3cccc(-c4ccccc4)c3)cc12 |
| 12.3 µM | 16% | 0% | 0% |  | 2.6 µM |  |  |  | COc1ccc(-c2cc(Cl)cc3c(=O)nc(N4CCOCC4)oc23)cc1 |
|  |  |  |  |  |  |  | 8% |  | NC(=O)c1ccc(-c2ccc3oc(N4CCOCC4)nc(=O)c3c2)cc1 |
|  | 5% | 0% | 6% | 0% |  |  | 12% |  | O=c1nc(N2CCOCC2)oc2ccc(-c3cccc4c3oc3ccccc34)cc12 |
